Test results taken from PubChem BioAssay AID1963871 (Molecular Pharmacology Branch, DTP, NCI, 2024).

Test system: KRAS-mutant PDC multicell tumor spheroid viability
Experiment: Anticancer human tumor 521955-158-R2-J5-PDC patient-derived pancreatic carcinoma cell line growth inhibition [KRAS2]
Details: for IC50: curve of first compound; for viability, T/C: stronger effect = lower value
Source text: Multicellular complex tumor spheroid response to RAS pathway inhibitors in combination with a targeted agents in patient-derived cell lines with oncogenic KRAS variants from multiple cancer types
A high-throughput screen of multi-cell type tumor spheroids was designed to identify active combinations of targeted small molecules and KRAS pathway inhibitors. Complex spheroids include a stromal component modeled by human endothelial cells (HUVEC) and fibroblasts modeled by human mesenchymal stem cells (MSCs). The concentration ranges selected for each drug and investigational agent were based upon clinically achievable concentrations if the clinical Cmax of the agent was known.
Compounds. The drugs and investigational agents: BI-3406 (NSC825286), BAY-293 (NSC824723), batoprotafib (TNO155; NSC825523), sotorasib (AMG 510; NSC818433), MRTX1257 (NSC819558), elimusertib (BAY 1895344; NSC800525), molibresib (GSK525762; NSC774829), temuterkib (LY3214996; NSC803410), venetoclax (NSC766270), alisertib (NSC759677), olaparib (NSC753686), talazoparib (NSC767125), erdafitinib (NSC781556), ipatasertib (NSC767898), cabozantinib (NSC761068), nintedanib (NSC756659), abemaciclib (NSC768073), docetaxel (NSC628503), trametinib (NSC758246), and sapanisertib (NSC764658) were obtained from the National Cancer Institute (NCI) Developmental Therapeutics Program Chemical Repository. The FDA-approved anticancer drug set is available from the Developmental Therapeutics Program. […] The stock solutions were prepared in dimethyl sulfoxide (DMSO, Sigma-Aldrich, St. Louis, MO, cat. D2650) at 800-fold the tested concentration and stored at -70 degrees C prior to their use. All drugs and investigational agents were tested over a range starting from a high concentration at or near the clinical Cmax and decreasing in half-log increments. If the clinical Cmax for an agent had not been determined, the highest concentration tested was 10 microM.
Cell Culture. All cells were maintained in an incubator at 37 degrees C and 5% CO2 with 95% humidity. The PDC lines were cultured according to standard operating procedures established by the NCI PDMR (https://pdmr.cancer.gov/sops/default.htm). Briefly, all PDCs were thawed and cultured in Matrigel-coated flasks prepared with a working solution of 1X Ham's F-12 nutrient mix, without supplementation (Invitrogen, Waltham, MA, cat. 11765054), 100 U/mL penicillin-streptomycin (Invitrogen, cat. 15140122), and 2.5% Matrigel (Corning Inc., Corning, NY, cat. 354248) for the first three passages. All PDCs were cultured in complete DMEM/F-12 media containing advanced DMEM/F-12 (Invitrogen, cat. 12634028), 4.9% defined fetal bovine serum, heat inactivated (HyClone Laboratories Inc., Logan, UT, cat. SH30070.03HI), 389 ng/mL hydrocortisone (Sigma-Aldrich, cat. H4001), 9.7 ng/mL human EGF recombinant protein (Invitrogen, cat. PHG0313), 23.4 microg/mL adenine (Sigma-Aldrich, cat. A2786), 97.3 U/mL penicillin-streptomycin (Invitrogen, cat. 15140122), 1.9 mM L-glutamine (Invitrogen, cat. 25030081), and 9.7 microM Y-27632 dihydrochloride (Tocris Bioscience, Bristol, United Kingdom, cat. 1254). The PDCs were cultured in complete DMEM/F12 media without 9.7 microM Y-27632 dihydrochloride for at least two passages prior to the screen. The established cell line HOP-62 was cultured in RPMI 1640 medium, HEPES (Invitrogen, cat. 22400105) with 10% defined fetal bovine serum (HyClone Laboratories Inc., cat. SH30070.03) and 2 mM L-glutamine (Invitrogen, cat. 25030081). The pooled donor HUVEC were cultured in endothelial cell growth medium 2 (PromoCell, Heidelberg, Germany, cat. C-22011) and the hMSC were cultured in mesenchymal stem cell growth medium 2 (PromoCell, cat. C-28009). For all experiments, HUVEC and hMSC were used at passages </=5, while the malignant cell lines were used at passages </=15. […]

[1] = second compound 0.1 µM, first compound 0.0316 µM
[2] = second compound 0.1 µM, first compound 0.1 µM
[3] = second compound 0.1 µM, first compound 0.316 µM
[4] = second compound 0.1 µM, first compound 1 µM
[5] = second compound 0.1 µM, first compound 3.16 µM
[6] = second compound 0.1 µM, first compound 10 µM
[7] = second compound 0.316 µM, first compound 0.0316 µM
[8] = second compound 0.316 µM, first compound 0.1 µM
[9] = second compound 0.316 µM, first compound 0.316 µM
[10] = second compound 0.316 µM, first compound 1 µM
[11] = second compound 0.316 µM, first compound 3.16 µM
[12] = second compound 0.316 µM, first compound 10 µM
[13] = second compound 1 µM, first compound 0.0316 µM
[14] = second compound 1 µM, first compound 0.1 µM
[15] = second compound 1 µM, first compound 0.316 µM
[16] = second compound 1 µM, first compound 1 µM
[17] = second compound 1 µM, first compound 3.16 µM
[18] = second compound 1 µM, first compound 10 µM
[19] = second compound 3.16 µM, first compound 0.0316 µM
[20] = second compound 3.16 µM, first compound 0.1 µM
[21] = second compound 3.16 µM, first compound 0.316 µM
[22] = second compound 3.16 µM, first compound 1 µM
[23] = second compound 3.16 µM, first compound 3.16 µM
[24] = second compound 3.16 µM, first compound 10 µM
[25] = second compound 10 µM, first compound 0.0316 µM
[26] = second compound 10 µM, first compound 0.1 µM
[27] = second compound 10 µM, first compound 0.316 µM
[28] = second compound 10 µM, first compound 1 µM
[29] = second compound 10 µM, first compound 3.16 µM
[30] = second compound 10 µM, first compound 10 µM
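Note: viability read after seven days of drug exposure.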

COC(=O)c1ccc2c(C(=Nc3ccc(N(C)C(=O)CN4CCN(C)CC4)cc3)c3ccccc3)c(O)[nH]c2c1 + C=CC(=O)N1CCN(c2nc(=O)n(-c3c(C)ccnc3C(C)C)c3nc(-c4c(O)cccc4F)c(F)cc23)C(C)C1
IC50 (second compound 0.1 µM): 1.72 µM
IC50 (second compound 0.316 µM): 1.54 µM
IC50 (second compound 1 µM): 0.727 µM
IC50 (second compound 3.16 µM): 1.01 µM
IC50 (second compound 10 µM): 1.26 µM
viability, T/C [1]: 89.6%
viability, T/C [2]: 88.4%
viability, T/C [3]: 87%
viability, T/C [4]: 75.9%
viability, T/C [5]: 21%
viability, T/C [6]: 0.16%
viability, T/C [7]: 102%
viability, T/C [8]: 88.1%
viability, T/C [9]: 89.9%
viability, T/C [10]: 74.2%
viability, T/C [11]: 10.3%
viability, T/C [12]: 0.14%
viability, T/C [13]: 113%
viability, T/C [14]: 96.4%
viability, T/C [15]: 77%
viability, T/C [16]: 43.5%
viability, T/C [17]: 4.15%
viability, T/C [18]: 0.16%
viability, T/C [19]: 86%
viability, T/C [20]: 82.1%
viability, T/C [21]: 67.9%
viability, T/C [22]: 53.4%
viability, T/C [23]: 2.33%
viability, T/C [24]: 0.14%
viability, T/C [25]: 66.5%
viability, T/C [26]: 71.5%
viability, T/C [27]: 56.6%
viability, T/C [28]: 61.2%
viability, T/C [29]: 4.87%
viability, T/C [30]: 0.22%

O=C(c1cc(Cc2n[nH]c(=O)c3ccccc23)ccc1F)N1CCN(C(=O)C2CC2)CC1 + C=CC(=O)N1CCN(c2nc(=O)n(-c3c(C)ccnc3C(C)C)c3nc(-c4c(O)cccc4F)c(F)cc23)C(C)C1
IC50 (second compound 0.1 µM): > 10 µM
IC50 (second compound 0.316 µM): > 10 µM
IC50 (second compound 1 µM): > 10 µM
IC50 (second compound 3.16 µM): > 10 µM
IC50 (second compound 10 µM): > 10 µM
viability, T/C [1]: 115%
viability, T/C [2]: 120%
viability, T/C [3]: 97.1%
viability, T/C [4]: 89.6%
viability, T/C [5]: 94.2%
viability, T/C [6]: 64.8%
viability, T/C [7]: 122%
viability, T/C [8]: 110%
viability, T/C [9]: 116%
viability, T/C [10]: 103%
viability, T/C [11]: 93.1%
viability, T/C [12]: 77.7%
viability, T/C [13]: 122%
viability, T/C [14]: 115%
viability, T/C [15]: 122%
viability, T/C [16]: 103%
viability, T/C [17]: 92.9%
viability, T/C [18]: 73.5%
viability, T/C [19]: 99.1%
viability, T/C [20]: 109%
viability, T/C [21]: 93.9%
viability, T/C [22]: 102%
viability, T/C [23]: 92.6%
viability, T/C [24]: 68.9%
viability, T/C [25]: 63.5%
viability, T/C [26]: 61.9%
viability, T/C [27]: 65.6%
viability, T/C [28]: 66.2%
viability, T/C [29]: 68.9%
viability, T/C [30]: 43.4%
